Data on 1 compound can be found in BindingDB's records for doi:10.1016/j.bmcl.2012.12.095 (Astrazeneca, 2013).

As usually defined, the IC50 is the midpoint of a concentration-inhibition curve.

The structures appear in SMILES notation.

This assay in a line: Antagonist activity at CCR1 receptor in human THP1 cells assessed as inhibition of MIP-1alpha-induced chemotaxis after 2 hrs by fluorescence assay.

In the case of `CC(=O)Nc1ccc(O)cc1OC[C@@H](N)CN1CCC2(CC1)Cc1ccccc1O2`, the IC50 amounted to 0.068 µM.
